Read-outs that look alike come from different tables or passages of the source.
Assays:
[1] = target: human c-20S β5c (Homo sapiens, UniProt P20618+P28074); experiment: Inhibition of human constitutive 20S β5c; type: biochemical; settings: read-out: Ki μM β5c; Table 2
[2] = target: human i-20S β5i (Homo sapiens, UniProt P20618+P28062); experiment: Inhibition of human immunoproteasome β5i; type: biochemical; settings: Table 2
[3] = tested on: mycobacterial proteasome in M. bovis strain BCG; type: cell-based; settings: for protection of mycobacterial proteasome from HT1171: then HT1171 25 μM 1 hour
[4] = target: T1, Mtb20SOG (Mycobacterium tuberculosis, UniProt P9WHT9)
[5] = target: Mtb20SOG
[6] = target: T1, Mtb20SOG; remark: listed apart in the source
[7] = over 22 hours

T1 sequence (P9WHT9 58-291): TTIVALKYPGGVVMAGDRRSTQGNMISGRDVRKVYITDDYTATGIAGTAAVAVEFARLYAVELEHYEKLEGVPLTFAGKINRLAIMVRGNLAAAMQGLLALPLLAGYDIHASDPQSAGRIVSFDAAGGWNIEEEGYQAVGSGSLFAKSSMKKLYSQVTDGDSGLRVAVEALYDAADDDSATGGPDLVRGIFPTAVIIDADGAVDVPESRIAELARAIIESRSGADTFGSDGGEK

SMILES	Ki [1] [µM]	Ki(β5i)/Ki(Mtb) [2]	Ki ([2]; read-out: Ki μM β5i) [µM]	protection of mycobacterial proteasome from HT1171 ([3]; DPLG-2 1 μM 4 hours)	protection of mycobacterial proteasome from HT1171 ([3]; DPLG-2 10 μM 4 hours)	protection of mycobacterial proteasome from HT1171 ([3]; DPLG-2 50 μM 4 hours)	increase in potency against Mtb20SOG compared to ML9 [4] [fold]	Ki ([4]; read-out: Ki μM Mtb20SOG) [µM]	Ki(β5c)/Ki(Mtb) [5]	species selectivity for Mtb20SOG over human constitutive proteasome β5 subunit [5] [fold]	apparent kon [6]	dissociation rate constant koff [6] [s⁻¹]	mode of inhibition of Mtb20SOG [6]	Ki ([6]; read-out: Ki^app calculated from koff/kon) [nM]	Ki ([6]; read-out: apparent Ki^app against Mtb20SOG) [nM]	stability in human plasma [7]	inhibition of proteasomes in intact BCG ([3]; HT1171 25 μM, 1 hour, absence of DPLG-2)
CCN(CC)C(=O)C[C@H](NC(=O)CCc1ccccc1)C(=O)N[C@@H](Cc1ccc(F)cc1)C(=O)NCc1cccc2ccccc12 [DPLG-2]	70	3650	54.7	HT1171 inhibited the proteasomes irreversibly	able to shield the mycobacterial proteasome active sites from HT1171	able to shield the mycobacterial proteasome active sites from HT1171	4	0.015	4670	4670	5.7 ± 0.2 × 10^4 M^−1s^−1	0.0015 ± 0.0001	time-dependent manner	26.3	24.2 ± 0.9	stable	
Cc1sc(-c2nsc(=O)o2)cc1[N+](=O)[O-] [HT1171, reference compound]																	inhibited the proteasomes irreversibly
